{"source": "paper PMC2746281", "about": "(PLoS ONE, 2009)", "key": {"[1]": {"test_system": "human cord-blood-derived mast cells (CBMC)", "assay": "TNF-α release by IgE-anti IgE-activated CBMC (ELISA)", "format": "cell-based", "conditions": "Mast cell, 4 hours of stimulation", "protocol": "(§1) (see Supporting Information; Methods S1). […] Assays of β-hexosaminidase release and TNF-α release were made by stimulating the CBMC with 1 µg/ml of goat anti-human IgE (Vector Laboratories) for 30 minutes or 4 hours, respectively. β-hexosaminidase was measured in the supernatant and in the sonicated cell pellets and its net release calculated. For TNF-α determination, the cell-free supernatants were collected by centrifugation and frozen at −80°C until determination of mediator content by the use of a specific ELISA kit according to manufacturer's instructions (Coulter, France). All assays were performed in duplicate and counts were repeated twice for each well.\n(§2) Human CBMC were produced by long-term culture of CD34+ progenitors purified from normal cord-blood. […] At the beginning of the culture, rhIL-3 (1 ng/ml) (R&D Systems Europe, France) was also added to induce maximal expansion of haematopoietic progenitors. After 3 days the IL-3 was removed and 4 days later cells were transferred to a complete serum-free medium containing rmSCF at 100 ng/ml, which was renewed every 7 days thereafter. After 8 weeks in culture ≥99% of the cells were identified as being mast cells by May-Grünwald-Giemsa staining of cytocentrifuged samples."}, "[2]": {"test_system": "Salmonella typhimurium and Escherichia coli", "conditions": "cited from earlier work"}, "[3]": {"test_system": "human cord-blood-derived mast cells (CBMC)", "assay": "FcεRI-mediated degranulation (β-hexosaminidase release) of IgE-anti IgE activated CBMC", "format": "cell-based", "conditions": "Mast cell, 0.5 h, 30 minutes of stimulation", "protocol": "as §1, §2"}}}
{"smiles": "Cc1ccc(NC(=O)c2ccc(CN3CCN(C)CC3)cc2)cc1Nc1nccc(-c2cccnc2)n1", "note": "[imatinib, reference compound]", "values": [{"measurement": "inhibition at 0.1 µM", "setting": "[1]; 0.1 µM", "value": 4, "unit": "%"}, {"measurement": "inhibition at 1 µM", "setting": "[1]; 1.0 µM", "value": 24, "unit": "%"}, {"measurement": "inhibition at 10 µM", "setting": "[1]; 10 µM", "value": 45, "unit": "%"}, {"measurement": "bacterial reverse mutation test", "setting": "[2]", "value": "positive"}, {"measurement": "inhibition at 0.1 µM", "setting": "[3]; 0.1 µM", "value": 2, "unit": "%"}, {"measurement": "inhibition at 1 µM", "setting": "[3]; 1.0 µM", "value": 8, "unit": "%"}, {"measurement": "inhibition at 10 µM", "setting": "[3]; 10 µM", "value": 19, "unit": "%"}]}
